In US20080255060A1, “Ester Linked Macrolides Useful For The Treatment of Microbial Infections” (priority 2004, published 2008):

Assays:
Assay in all cases: MIC, standard microtiter broth serial dilution test
Type in all cases: cell-based
H. influenzae ATCC 0529 = conditions: Haemophilus influenzae, ATCC0529
[1] = system: erythromycin resistant strains of Streptococcus pneumoniae
[2] = system: erythromycin resistant strains of Streptococcus pyogenes
[3] = system: S. aureus Smith ATCC 0329; conditions: Staphylococcus aureus, ATCC0329
E. faecalis ATCC 0004 = conditions: Enterococcus faecalis, ATCC0004
S. pneumoniae 0541 = conditions: Streptococcus pneumoniae
S. pyogenes 0542 = conditions: Streptococcus pyogenes
M. catarrhalis ATCC 0324 = conditions: Moraxella catarrhalis, ATCC0324

| SMILES | MIC (H. influenzae ATCC 0529) | MIC [1] | MIC [2] | MIC [3] | MIC (E. faecalis ATCC 0004) | MIC (S. pneumoniae 0541) | MIC (S. pyogenes 0542) | MIC (M. catarrhalis ATCC 0324) |
| --- | --- | --- | --- | --- | --- | --- | --- | --- |
| CC[C@H]1OC(=O)[C@H](C)[C@@H](O[C@H]2C[C@@](C)(OC)[C@@H](OC(=O)CCOCCOCCCc3ccc4c(c3)c(=O)c(C(=O)O)cn4CC)[C@H](C)O2)[C@H](C)[C@@H](OC2O[C@H](C)C[C@H](N(C)C)[C@H]2O)[C@](C)(O)C[C@@H](C)CN(C)[C@H](C)[C@@H](O)[C@]1(C)O (stereo partly drawn) [Example 49, 4″-O-(3-{2-[3-(3-carboxy-1-ethyl-4-oxo-1,4-dihydro-quinolin-6-yl)-propoxy]-ethoxy}-propionyl)-azithromycin] | ≤ 2 µg/mL | ≤ 0.25 µg/mL | ≤ 0.25 µg/mL | ≤ 1 µg/mL | ≤ 1 µg/mL | ≤ 1 µg/mL | ≤ 1 µg/mL | ≤ 2 µg/mL |
| CC[C@H]1OC(=O)[C@H](C)[C@@H](O[C@H]2C[C@@](C)(OC)[C@@H](OC(=O)CCOCCOCCNc3cc4c5c(c3)c(=O)c(C(=O)O)cn5CCC4)[C@H](C)O2)[C@H](C)[C@@H](O[C@@H]2O[C@H](C)C[C@H](N(C)C)[C@H]2O)[C@](C)(OC)C[C@@H](C)C(=O)[C@H](C)[C@@H](O)[C@]1(C)O [Example 33, 4″-O-(3-{2-[2-(6-Carboxy-7-oxo-2,3-dihydro-1H,7H-pyrido[3,2,1-ij]quinolin-9-ylamino)-ethoxy]-ethoxy}-propionyl)-6-O-methyl-erythromycin A] | ≤ 2 µg/mL | ≤ 0.25 µg/mL | ≤ 0.25 µg/mL | ≤ 1 µg/mL | ≤ 1 µg/mL | ≤ 1 µg/mL | ≤ 1 µg/mL | ≤ 2 µg/mL |
| CC[C@H]1OC(=O)[C@H](C)[C@@H](O[C@H]2C[C@@](C)(OC)[C@@H](OC(=O)CCOCCOCCNc3ccc4c(c3)c(=O)c(C(=O)O)cn4C3CC3)[C@H](C)O2)[C@H](C)[C@@H](O[C@@H]2O[C@H](C)C[C@H](N(C)C)[C@H]2O)[C@](C)(O)C[C@@H](C)CN(C)[C@H](C)[C@@H](O)[C@]1(C)O [Example 11, 4″-O-(3-{2-[2-(3-Carboxy-1-cyclopropyl-4-oxo-1,4-dihydro-quinolin-6-ylamino)-ethoxy]-ethoxy}-propionyl)-azithromycin] | ≤ 2 µg/mL | ≤ 0.25 µg/mL | ≤ 0.25 µg/mL | ≤ 1 µg/mL | ≤ 1 µg/mL | ≤ 1 µg/mL | ≤ 1 µg/mL | ≤ 2 µg/mL |
| CC[C@H]1OC(=O)[C@H](C)[C@@H](O[C@H]2C[C@@](C)(OC)[C@@H](OC(=O)CCOCCOCCOc3cc4c(=O)c(C(=O)O)cn(C5CC5)c4cc3Cl)[C@H](C)O2)[C@H](C)[C@@H](O[C@@H]2O[C@H](C)C[C@H](N(C)C)[C@H]2O)[C@](C)(O)C[C@@H](C)CN(C)[C@H](C)[C@@H](O)[C@]1(C)O [Example 55, 4″-O-(3-{2-[2-(3-Carboxy-7-chloro-1-cyclopropyl-4-oxo-1,4-dihydro-quinolin-6-yloxy)-ethoxy]-ethoxy}-propionyl)-azithromycin] | ≤ 2 µg/mL | ≤ 0.25 µg/mL | ≤ 0.25 µg/mL | ≤ 1 µg/mL | ≤ 1 µg/mL | ≤ 1 µg/mL | ≤ 1 µg/mL | ≤ 2 µg/mL |
| CC[C@H]1OC(=O)[C@H](C)[C@@H](O[C@H]2C[C@@](C)(OC)[C@@H](OC(=O)CCOCCOCCNc3cc4c(=O)c(C(=O)O)cn(C5CC5)c4cc3Cl)[C@H](C)O2)[C@H](C)[C@@H](O[C@@H]2O[C@H](C)C[C@H](N(C)C)[C@H]2O)[C@](C)(O)C[C@@H](C)/C(=N\OCOCCOC)[C@H](C)[C@@H](O)[C@]1(C)O [Example 6, 4″-O-(3-{2-[2-(3-Carboxy-7-chloro-1-cyclopropyl-4-oxo-1,4-dihydro-quinolin-6-ylamino)-ethoxy]-ethoxy}-propionyl)-roxythromycin] |  | ≤ 0.25 µg/mL | ≤ 0.25 µg/mL | ≤ 1 µg/mL | ≤ 1 µg/mL | ≤ 1 µg/mL | ≤ 1 µg/mL |  |
| CC[C@H]1OC(=O)[C@H](C)[C@@H](O[C@H]2C[C@@](C)(OC)[C@@H](OC(=O)CCOCCOCCNc3cc4c(=O)c(C(=O)O)cn(C5CC5)c4cc3Cl)[C@H](C)O2)[C@H](C)[C@@H](O[C@@H]2O[C@H](C)C[C@H](N(C)C)[C@H]2O)[C@](C)(O)C[C@@H](C)CN(C)[C@H](C)[C@@H](O)[C@]1(C)O [Example 8, 4″-O-(3-{2-[2-(3-Carboxy-7-chloro-1-cyclopropyl-4-oxo-1,4-dihydro-quinolin-6-ylamino)-ethoxy]-ethoxy}-propionyl)-azithromycin] | ≤ 2 µg/mL | ≤ 0.25 µg/mL | ≤ 0.25 µg/mL | ≤ 1 µg/mL | ≤ 1 µg/mL | ≤ 1 µg/mL | ≤ 1 µg/mL | ≤ 2 µg/mL |
| CC[C@H]1OC(=O)[C@H](C)[C@@H](OC2C[C@@](C)(OC)[C@@H](OC(=O)CCOCCOCCNc3cc4c5c(c3)c(=O)c(C(=O)O)cn5CCC4)[C@H](C)O2)[C@H](C)[C@@H](O[C@@H]2O[C@H](C)C[C@H](N(C)C)[C@H]2O)[C@](C)(O)C[C@@H](C)CN(C)[C@H](C)[C@@H](O)[C@]1(C)O (stereo partly drawn) [Example 32, 4″-O-(3-{2-[2-(6-Carboxy-7-oxo-2,3-dihydro-1H,7H-pyrido[3,2,1-ij]quinolin-9-ylamino)-ethoxy]-ethoxy}-propionyl)-azithromycin] | ≤ 2 µg/mL | ≤ 0.25 µg/mL | ≤ 0.25 µg/mL | ≤ 1 µg/mL | ≤ 1 µg/mL | ≤ 1 µg/mL | ≤ 1 µg/mL | ≤ 2 µg/mL |
| CC[C@H]1OC(=O)[C@H](C)[C@@H](O[C@H]2C[C@@](C)(OC)[C@@H](OC(=O)CCNCCOCCOCCNc3cc4c(=O)c(C(=O)O)cn(C5CC5)c4cc3Cl)[C@H](C)O2)[C@H](C)[C@@H](O[C@@H]2O[C@H](C)C[C@H](N(C)C)[C@H]2O)[C@](C)(O)C[C@@H](C)CN(C)[C@H](C)[C@@H](O)[C@]1(C)O [Example 65, 4″-O-[3-(2-{2-[2-(3-Carboxy-7-chloro-1-cyclopropyl-4-oxo-1,4-dihydro-quinolin-6-ylamino)-ethoxy]-ethoxy}-ethylamino)-propionyl]-azithromycin] | ≤ 2 µg/mL | ≤ 0.25 µg/mL | ≤ 0.25 µg/mL | ≤ 1 µg/mL | ≤ 1 µg/mL | ≤ 1 µg/mL | ≤ 1 µg/mL | ≤ 2 µg/mL |
| CCO/N=C1\[C@H](C)C[C@@](C)(O)[C@H](O[C@@H]2O[C@H](C)C[C@H](N(C)C)[C@H]2O)[C@@H](C)[C@H](OC2C[C@@](C)(OC)[C@@H](OC(=O)CCOCCOCCNc3cc4c(=O)c(C(=O)O)cn(C5CC5)c4cc3Cl)[C@H](C)O2)[C@@H](C)C(=O)O[C@H](CC)[C@@](C)(O)[C@H](O)[C@H]1C (stereo partly drawn) [Example 19, 4″-O-(3-{2-[2-(3-Carboxy-7-chloro-1-cyclopropyl-4-oxo-1,4-dihydro-quinolin-6-ylamino)-ethoxy]-ethoxy}-propionyl)-9(E)-ethoxyimino-erythromycin A] | ≤ 2 µg/mL | ≤ 0.25 µg/mL | ≤ 0.25 µg/mL | ≤ 1 µg/mL | ≤ 1 µg/mL | ≤ 1 µg/mL | ≤ 1 µg/mL | ≤ 2 µg/mL |
| CCO/N=C1\[C@H](C)C[C@@](C)(O)[C@H](OC2O[C@H](C)C[C@H](N(C)C)[C@H]2O)[C@@H](C)[C@H](OC2C[C@@](C)(OC)[C@@H](OC(=O)CCOCCOCCCc3ccc4c(c3)c(=O)c(C(=O)O)cn4CC)[C@H](C)O2)[C@@H](C)C(=O)O[C@H](CC)[C@@](C)(O)[C@H](O)[C@H]1C (stereo partly drawn) [Example 52, 9-Ethyloximino-4″-O-(3-{2-[3-(3-carboxy-1-ethyl-4-oxo-1,4-dihydro-quinolin-6-yl)-propoxy]-ethoxy}-propionyl)-erythromycin A] |  | ≤ 0.25 µg/mL | ≤ 0.25 µg/mL |  |  |  |  |  |
| CC[C@H]1OC(=O)[C@H](C)[C@@H](OC2C[C@@](C)(OC)[C@@H](OC(=O)CCNCCOCCCc3ccc4c(c3)c(=O)c(C(=O)O)cn4CC)[C@H](C)O2)[C@H](C)[C@@H](OC2O[C@H](C)C[C@H](N(C)C)[C@H]2O)[C@](C)(OC)C[C@@H](C)C(=O)[C@H](C)[C@@H](O)[C@]1(C)O (stereo partly drawn) [Example 37, 4″-O-(3-{2-[3-(3-Carboxy-1-ethyl-4-oxo-1,4-dihydro-quinolin-6-yl)-propoxy]-ethylamino}-propionyl)-6-O-methyl-erythromycin A] | ≤ 2 µg/mL | ≤ 0.25 µg/mL | ≤ 0.25 µg/mL | ≤ 1 µg/mL | ≤ 1 µg/mL | ≤ 1 µg/mL | ≤ 1 µg/mL | ≤ 2 µg/mL |
| CC[C@H]1OC(=O)[C@H](C)[C@@H](O[C@H]2C[C@@](C)(OC)[C@@H](OC(=O)CCOCCOCCNc3ccc4c(c3)c(=O)c(C(=O)O)cn4CC)[C@H](C)O2)[C@H](C)[C@@H](O[C@@H]2O[C@H](C)C[C@H](N(C)C)[C@H]2O)[C@](C)(O)C[C@@H](C)CN(C)[C@H](C)[C@@H](O)[C@]1(C)O [Example 30, 4″-O-(3-{2-[2-(3-Carboxy-1-ethyl-4-oxo-1,4-dihydro-quinoline-6-ylamino)-ethoxy]-ethoxy}-propionyl)-azithromycin] | ≤ 2 µg/mL | ≤ 0.25 µg/mL | ≤ 0.25 µg/mL | ≤ 1 µg/mL | ≤ 1 µg/mL | ≤ 1 µg/mL | ≤ 1 µg/mL | ≤ 2 µg/mL |
| CC[C@H]1OC(=O)[C@H](C)[C@@H](O[C@H]2C[C@@](C)(OC)[C@@H](OC(=O)CCOCCOCCNc3cc4c(=O)c(C(=O)O)cn(C(C)C)c4cc3Cl)[C@H](C)O2)[C@H](C)[C@@H](O[C@@H]2O[C@H](C)C[C@H](N(C)C)[C@H]2O)[C@](C)(O)C[C@@H](C)CN(C)[C@H](C)[C@@H](O)[C@]1(C)O [Example 31, 4″-O-(3-{2-[2-(3-carboxy-7-chloro-1-isopropyl-4-oxo-1,4-dihydro-quinoline-6-ylamino)-ethoxy]-ethoxy}-propionyl)-azithromycin] | ≤ 2 µg/mL | ≤ 0.25 µg/mL | ≤ 0.25 µg/mL | ≤ 1 µg/mL | ≤ 1 µg/mL | ≤ 1 µg/mL | ≤ 1 µg/mL | ≤ 2 µg/mL |
